Experiment [1] relates to anaphylactic asthma in guinea pigs. Description: Antagonistic action on anaphylactic asthma in guinea pigs. The experiment is classed as in vivo, Male Hartley-strain guinea pigs. The conditions noted are these: Cavia porcellus; oral, 30 min before 5% egg-white albumin aerosol; passively sensitized guinea pigs, 5 per group; survival for not less than 2 hours; read-out: Prophylactic Effect ED50. How it is done:
Antagonistic action on anaphylactic asthma in guinea pigs.
Male Hartley-strain guinea pigs weighing 305-400g were used. These animals were sensitized by intravenous injection of 0.5 ml/animal of rabbit antiserum to egg-white albumin (PCA antibody titer 4,000). After 24 hours, the animals were housed individually in 5.3-liter plastic chambers. Using a commercial sprayer, a 5% egg-white albumin solution was sprayed in the form of an aerosol into each chamber at a rate of 0.16 ml/min for 2 minutes. Thirty minutes prior to the spraying of the egg-white albumin solution, the test compound was administered orally in varied concentrations. Each dosed group consisted of 5 animals. The prophylactic effect to anaphylaxis was expressed in terms of the ED50 value determined on the basis of the number of guinea pigs which had survived for not less than 2 hours after antigen spraying for each administration concentration of the test compound.

Experiment [2] relates to SRS-A synthesis or release from peritoneal exudate cells. Description: Anti-SRS-A activity (SRS-A synthesis or release from peritoneal exudate cells). The experiment is classed as cell-based, SD rats. To be noted: rat peritoneal exudate cells, Ca++-ionophore A23187 1 μg/ml, indomethacin 10 μg/ml; SRS-A determined by contractility of isolated guinea pig ileum; read-out: Inhibitory Concentration IC50. As for the experimental part: Peritoneal exudate cells were collected from glycogen-injected SD rats and adjusted to 1×10^7 cells/ml with Tyrode's solution. One milliliter of the cell suspension was incubated with indomethacin (10 μg/ml) and each varied concentration of the test compound for 10 minutes and, then, further incubated with Ca^++ -ionophore (A23187, 1 μg/ml) for 10 minutes. The supernatant was collected by centrifugation and the SRS-A (slow-reacting substance of anaphylaxis) activity was determined in terms of contractility of the isolated guinea pig ileum in the presence of mepyramine, atropine and methysergide.
The results were expressed in terms of the 50% inhibitory concentration to SRS-A synthesis or release from peritoneal exudate cells.

Values after ≈ are worked out from the molar mass of the structure shown.

In general, ED50 refers to the midpoint of the dose-response relation.

As to `COc1cc(/C=C/C=C/C(=O)NCCCCN2CCC(c3c[nH]c4ccccc34)CC2)ccc1O` [Compound A, 1-[4-{5-(4-Hydroxy-3-methoxyphenyl)-(2E, 4E)-2,4-pentadienoylamino}butyl]-4-(3-indolyl)-piperidine], the ED50 in experiment [1] came to 0.5 mg/kg.

For `COc1cc(/C=C/C=C/C(=O)NCCN2CCC(c3c[nH]c4ccccc34)CC2)ccc1O` [Compound B, 1-[2-{5-(4-Hydroxy-3-methoxyphenyl)-(2E, 4E)-2,4-pentadienoylamino}ethyl]-4-(3-indolyl)piperidine], the IC50 in experiment [2] was determined as 0.91 µg/mL (≈ 2.04 µM). For the compound `COc1cc(/C=C/C=C/C(=O)NCCN2CCC(c3c[nH]c4ccccc34)CC2)cc(OC)c1O` [Compound C, 1-[2-{5-(4-Hydroxy-3,5-dimethoxyphenyl)-(2E, 4E)-2,4-pentadienoylamino}ethyl]-4-(3-indolyl)piperidine], in experiment [1], the ED50 is 0.5 mg/kg. For the same compound, the IC50 in experiment [2] stood at 0.68 µg/mL (≈ 1.43 µM). Take `COc1cc(/C=C/C=C/C(=O)NCCN2CCC(c3c[nH]c4ccccc34)CC2)ccc1OC(C)=O` [Compound D, 1-[2-{5-(4-Acetoxy-3-methoxyphenyl)-(2E, 4E)-2,4-pentadienoylamino}ethy]-4-(3-indolyl)piperidine]: the IC50 in experiment [2] worked out at 0.6 µg/mL (≈ 1.23 µM). Same read-out and setting: for `COc1cc(/C=C/C=C/C(=O)NCCN2CCC(c3c[nH]c4ccccc34)CC2)cc(OC)c1OC(C)=O` [Compound E, 1-[2-{5-(4-Acetoxy-3,5-dimethoxyphenyl)-(2E, 4E)-2,4-pentadienoylamino}ethyl]-4-(3-indolyl)piperidine] the value was 0.23 µg/mL (≈ 0.444 µM); for `O=C(/C=C/C=C/c1cc(Cl)c(O)c(Cl)c1)NCCN1CCC(c2c[nH]c3ccccc23)CC1` [Compound F, 1-[2-{5-(3,5-Dichloro-4-hydroxyphenyl)-(2E, 4E)-2,4-pentadienoylamino}ethyl]-4-(3-indolyl)piperidine], 0.65 µg/mL (≈ 1.34 µM).

For the origin of these results see patent publication US5017703A, “Indolylpiperidine compounds, processes for the preparation thereof and pharmaceutical composition comprising the same” (Fujisawa Pharmaceutical Company, Ltd., priority 1988, dated 1991).
